For series [1], the system named is male Fischer 344 rats. The settings on record: ref Patel et al., 2008, cited from earlier work.
For series [2], the system named is male Fischer 344 rats. Description: Liver histology. In kind it is in vivo. The conditions noted are these: 24 h.
The test system of series [3] is male Fischer 344 rats. The series is described as follows: Kidney histology. Type of series: in vivo. The settings on record: all doses evaluated, i.p., 24 h, vs corn oil.
The test system of series [4] is male Fischer 344 rats. Description: Six-hour urine protein content after a single i.p. dose. Type of series: in vivo. The settings on record: i.p. in corn oil, mean ± SE, N = 3–4.
In series [5] the test system is male Fischer 344 rats. The series is described as follows: Kidney weight 24 h after a single i.p. dose. In kind it is in vivo. The conditions noted are these: i.p. in corn oil, mean ± SE, N = 3–4.
For series [6], the system named is male Fischer 344 rats. The series is described as follows: Urine volume after a single i.p. dose. The conditions noted are these: for Twenty-four-hour urine volume: i.p. in corn oil, mean ± SE, N = 3–4. In kind it is in vivo.
Series [7] relates to male Fischer 344 rats. The series is described as follows: Blood urea nitrogen. Type of series: in vivo. The settings on record: for Blood urea nitrogen: i.p. in corn oil, 24 h, mean ± SE, N = 3–4.
Series [8] relates to male Fischer 344 rats. The series is described as follows: Serum alanine aminotransferase. The conditions noted are these: 24 h; for serum alanine aminotransferase (ALT) activity: corn oil controls 36.0 ± 11.3. In kind it is in vivo.
Series [9] relates to male Fischer 344 rats. The series is described as follows: Liver weight 24 h after a single i.p. dose. In kind it is in vivo. The settings on record: i.p. in corn oil, mean ± SE, N = 3–4.
Series [10] has as its system male Fischer 344 rats. The series is described as follows: Clinical observation 24 h after dosing. In kind it is in vivo, rat. The conditions noted are these: 0.6 mmol/kg i.p., 24 h after dosing (sluggish movements and low body temperatures).
Setting [11] is: dose 0.2 (head mg/kg; text mmol/kg).
Setting [12] is: dose 0.4 (head mg/kg; text mmol/kg).
Where [13] appears, read: dose 0.6 (head mg/kg; text mmol/kg).
Setting [14] is: dose 1.0 (head mg/kg; text mmol/kg).

Each structure is given as a SMILES string. Like-named read-outs stand apart in the source and are kept apart here. Marks after values point to notes of the source that are not given here.

In the case of `O=C1CSC(=O)N1c1cc(Cl)cc(Cl)c1` [DCPT, 3-(3,5-dichlorophenyl)-2,4-thiazolidinedione], the ALT values with male Fischer 344 rats [1] (0.2 mmol/kg) is 26.7 ± 6.6 SF units/ml; in the series on male Fischer 344 rats [1] (0.4 mmol/kg), 231.5 ± 50.0 SF units/ml; with male Fischer 344 rats [1] (0.6 mmol/kg) it was 281.7 ± 103.0 SF units/ml; with male Fischer 344 rats [1] (1.0 mmol/kg), 506.9 ± 99.4 SF units/ml.
As to `O=C(O)CSC(=O)Nc1cc(Cl)cc(Cl)c1` [DCTA, [[[(3,5-dichlorophenyl)amino]carbonyl]thio]acetic acid], the “Liver morphology” value is listed as “nuclear condensation was apparent in some hepatocytes” in the series with male Fischer 344 rats [2] (0.6 mmol/kg i.p.); “did not produce any significant changes” with male Fischer 344 rats [2] (0.2 and 0.4 mmol/kg i.p.). Moreover, the “Kidney morphology” value with male Fischer 344 rats [3] is given as “did not exhibit obvious changes in kidney morphology”. Besides, the results for the “Six-hour urine protein content” value with male Fischer 344 rats [4] (setting [11]), in the series on male Fischer 344 rats [4] (setting [12]) and in the series on male Fischer 344 rats [4] (setting [13]) were 2.9 ± 0.9^b mg, 2.5 ± 0.4^b mg and 2.5 ± 1.1^b mg, respectively. Besides, the Kidney weight was 0.40 ± 0.01^b g/ 100% BW in the series on male Fischer 344 rats [5] (setting [11]), 0.43 ± 0.01 *,^b,^c g/ 100% BW in the series on male Fischer 344 rats [5] (setting [12]) and 0.45 ± 0.01 *,^c g/ 100% BW with male Fischer 344 rats [5] (setting [13]). The Twenty-four-hour urine volume is 12.5 ± 3.8^b ml with male Fischer 344 rats [6] (setting [11]), 13.1 ± 2.4^b ml in the series with male Fischer 344 rats [6] (setting [12]) and 9.5 ± 5.0^b ml with male Fischer 344 rats [6] (setting [13]). In addition, the “Increase in serum BUN concentrations” value in the series with male Fischer 344 rats [7] (0.4 and 0.6 mmol/kg, compared to corn oil and the 0.2 mmol/kg dose) was “about 3 fold”. Moreover, the values for the Blood urea nitrogen in the series with male Fischer 344 rats [7] (setting [11]), with male Fischer 344 rats [7] (setting [12]) and with male Fischer 344 rats [7] (setting [13]) were 21.0 ± 1.0^b mg/dl, 62.2 ± 11.2*,^c mg/dl and 67.8 ± 17.9*,^c mg/dl, respectively. The “ALT elevation compared to corn oil controls” value in the series on male Fischer 344 rats [8] (0.6 mmol/kg i.p.) was “about 2 fold”. Also, the “Change in serum ALT levels” value in the series with male Fischer 344 rats [8] (0.2 and 0.4 mmol/kg i.p.) was “no changes were noted”. Besides, the Liver weight in the series on male Fischer 344 rats [9] (setting [11]) is on record as 3.58 ± 0.21^b g/100% BW; in the series on male Fischer 344 rats [9] (setting [12]) it was 3.62 ± 0.05^b g/100% BW; in the series with male Fischer 344 rats [9] (setting [13]), 3.46 ± 0.17^b g/100% BW. Further, the “Clinical appearance” value in the series on male Fischer 344 rats [10] was “appeared to be moribund”.
Consider `CC1SC(=O)N(c2cc(Cl)cc(Cl)c2)C1=O` (centres unmarked) [DPMT, 3-(3,5-dichlorophenyl)-5-methyl-2,4-thiazolidinedione], for which the “Liver morphology” value in the series with male Fischer 344 rats [2] (0.6 mmol/kg i.p.) is “some damage near the centrilobular vein”; in the series on male Fischer 344 rats [2] (1.0 mmol/kg i.p.), “more damaged hepatocytes”; in the series on male Fischer 344 rats [2] (0.2 and 0.4 mmol/kg i.p.) it was “did not show any noticeable changes in liver morphology”. Also, in the series on male Fischer 344 rats [3], the “Kidney morphology” value is listed as “did not exhibit obvious changes in kidney morphology”. Besides, the “Six-hour urine protein content” value in the series on male Fischer 344 rats [4] (setting [11]) is reported as 2.1 ± 0.7^a mg; in the series with male Fischer 344 rats [4] (setting [12]), 1.6 ± 0.1^a mg; in the series with male Fischer 344 rats [4] (setting [13]), 2.6 ± 0.8^a mg; with male Fischer 344 rats [4] (setting [14]), 2.5 ± 0.3^a mg. In addition, the Kidney weight in the series with male Fischer 344 rats [5] (setting [11]) is reported as 0.37 ± 0.01^a g/ 100% BW; in the series with male Fischer 344 rats [5] (setting [12]) it was 0.38 ± 0.01^a g/ 100% BW; in the series with male Fischer 344 rats [5] (setting [13]), 0.39 ± 0.01^a g/ 100% BW; with male Fischer 344 rats [5] (setting [14]), 0.41 ± 0.01^a g/ 100% BW. In the series with male Fischer 344 rats [6] (0.6 and 1.0 mmol/kg), the “Increase in urine volume” value is “about three-fold increase”. For the same molecule, the Twenty-four-hour urine volume is reported as 6.5 ± 2.1^a ml in the series with male Fischer 344 rats [6] (setting [11]), 8.1 ± 1.7^a ml with male Fischer 344 rats [6] (setting [12]), 11.6 ± 1.0*,^a ml in the series on male Fischer 344 rats [6] (setting [13]) and 10.8 ± 1.3*,^a ml in the series on male Fischer 344 rats [6] (setting [14]). Besides, the Blood urea nitrogen with male Fischer 344 rats [7] (setting [11]) is listed as 19.6 ± 0.8^a mg/dl; in the series with male Fischer 344 rats [7] (setting [12]), 24.6 ± 1.3^a mg/dl; in the series with male Fischer 344 rats [7] (setting [13]) it was 19.8 ± 2.8^a mg/dl; in the series with male Fischer 344 rats [7] (setting [14]), 20.0 ± 2.2^a mg/dl. Moreover, the “serum alanine aminotransferase (ALT) activity” value stood at 298.6 ± 176.1 Sigma-Frankel units/ml in the series on male Fischer 344 rats [8] (0.6 mmol/kg i.p. in corn oil) and 327.3 ± 102.9 Sigma-Frankel units/ml in the series with male Fischer 344 rats [8] (1.0 mmol/kg i.p. in corn oil). Moreover, the “Change in serum ALT levels” value in the series with male Fischer 344 rats [8] (0.6 and 1.0 mmol/kg i.p., vs two lower doses and corn oil) is reported as “significant elevation in ALT concentrations”. For the same molecule, the Liver weight in the series with male Fischer 344 rats [9] (setting [11]) was 3.67 ± 0.31^a g/100% BW; in the series on male Fischer 344 rats [9] (setting [12]) it was 3.81 ± 0.22^a g/100% BW; with male Fischer 344 rats [9] (setting [13]) it was 4.03 ± 0.27^a g/100% BW; in the series on male Fischer 344 rats [9] (setting [14]) it was 4.10 ± 0.07^a g/100% BW.
Consider `O=C1CSC(=O)N1c1ccccc1` [PTZD, 3-phenyl-2,4-thiazolidinedione], for which the “Liver morphology” value is “did not show any signs of hepatic damage” in the series with male Fischer 344 rats [2] (0.2 mmol/kg i.p.); “some damage with granular and irregularly stained cytoplasm and indistinct nuclei” with male Fischer 344 rats [2] (0.4 mmol/kg i.p.); “larger necrotic lesions were present and an acute inflammatory response occurred” in the series with male Fischer 344 rats [2] (1.0 mmol/kg i.p.). Moreover, the “Kidney morphology” value in the series with male Fischer 344 rats [3] was “dilation of distal tubules and collecting tubules”. The “Six-hour urine protein content” value in the series with male Fischer 344 rats [4] (setting [11]) is recorded as 2.1 ± 0.5^d mg; in the series on male Fischer 344 rats [4] (setting [12]) it was 2.1 ± 0.2^d mg; in the series on male Fischer 344 rats [4] (setting [13]), 3.4 ± 0.9^d mg; in the series on male Fischer 344 rats [4] (setting [14]) it was 2.3 ± 0.6^d mg. Moreover, the Kidney weight was 0.36 ± 0.01^d g/ 100% BW in the series with male Fischer 344 rats [5] (setting [11]), 0.40 ± 0.00*,^e g/ 100% BW with male Fischer 344 rats [5] (setting [12]), 0.41 ± 0.01*,^e g/ 100% BW in the series with male Fischer 344 rats [5] (setting [13]) and 0.47 ± 0.01 *,^f g/ 100% BW with male Fischer 344 rats [5] (setting [14]). The Twenty-four-hour urine volume is reported as 6.1 ± 1.7^d ml in the series with male Fischer 344 rats [6] (setting [11]), 11.5 ± 3.2^d ml with male Fischer 344 rats [6] (setting [12]), 12.5 ± 2.4^d ml in the series on male Fischer 344 rats [6] (setting [13]) and 22.6 ± 0.4*,^e ml in the series on male Fischer 344 rats [6] (setting [14]). Further, the Blood urea nitrogen with male Fischer 344 rats [7] (setting [11]) is on record as 24.8 ± 1.9^d mg/dl; in the series on male Fischer 344 rats [7] (setting [12]) it was 24.1 ± 0.9^d mg/dl; with male Fischer 344 rats [7] (setting [13]), 28.6 ± 2.0*,^d mg/dl; with male Fischer 344 rats [7] (setting [14]), 31.3 ± 2.4*,^d mg/dl. Besides, in the series with male Fischer 344 rats [8] (0.2 mmol/kg i.p., vs corn oil), the “Change in serum ALT levels” value is “did not produce a significant change”. For the same molecule, the “ALT elevation compared to corn oil controls” value is given as “approximately 7 fold” in the series on male Fischer 344 rats [8] (0.4 mmol/kg i.p.), roughly 26 fold with male Fischer 344 rats [8] (0.6 mmol/kg i.p.) and roughly 33 fold in the series with male Fischer 344 rats [8] (1.0 mmol/kg i.p.). Further, the “serum alanine aminotransferase (ALT) activity” value in the series with male Fischer 344 rats [8] (1.0 mmol/kg i.p. in corn oil) is on record as 1196.2 ± 133.6 Sigma-Frankel units/ml. Further, the Liver weight was 3.69 ± 0.25^e g/100% BW in the series on male Fischer 344 rats [9] (setting [11]), 3.68 ± 0.18^e g/100% BW in the series with male Fischer 344 rats [9] (setting [12]), 4.08 ± 0.08^e g/100% BW in the series with male Fischer 344 rats [9] (setting [13]) and 4.24 ± 0.06*,^e g/100% BW in the series with male Fischer 344 rats [9] (setting [14]).
